Data as given in patent US7189718B2, “Non-nucleoside reverse transcriptase inhibitors” (Roche Palo Alto LLC, priority 2003, dated 2007).

Target: T1, HIV-1 RT (Human immunodeficiency virus type 1 group M subtype B, UniProt P03366)
T1 construct: HIV-1 RT assay was carried out in 96-well Millipore MultiScreen MADVNOB50 plates using purified recombinant enzyme
Experiment: HIV Reverse Transcriptase Assay: Inhibitor IC50 Determination
Type: biochemical
Conditions: purified recombinant enzyme, poly(rA)/oligo(dT)16 template-primer, 4 nM HIV-1 RT, 37° C. for 30 min, 10% DMSO; read-out: RT inhibition IC50
Experimental: HIV Reverse Transcriptase Assay: Inhibitor IC50 Determination
HIV-1 RT assay was carried out in 96-well Millipore MultiScreen MADVNOB50 plates using purified recombinant enzyme and a poly(rA)/oligo(dT)16 template-primer in a total volume of 50 μL. The assay constituents were 50 mM Tris/HCl 50 mM NaCl, 1 mM EDTA, 6 mM MgCl2, 5 μM dTTP, 0.15 μCi [^3H] dTTP, 5 μg/ml poly (rA) pre annealed to 2.5 μg/ml oligo (dT)16 and a range of inhibitor concentrations in a final concentration of 10% DMSO. Reactions were initiated by adding 4 nM HIV-1 RT and after incubation at 37° C. for 30 min, they were stopped by the addition of 50 μl ice cold 20% TCA and allowed to precipitate at 4° C. for 30 min. The precipitates were collected by applying vacuum to the plate and sequentially washing with 3×200 μl of 10% TCA and 2×200 μl 70% ethanol. Finally, the plates were dried and radioactivity counted in a Packard TopCounter after the addition of 25 μl scintillation fluid per well. IC50's, were calculated by plotting % inhibition versus log10 inhibitor concentrations.

In order of rising IC50:
1. O=c1ccc(Cc2ccc(Cl)c(Oc3cc(Cl)ccc3Br)c2F)n[nH]1 [I-136, 6-[3-(2-Bromo-5-chloro-phenoxy)-4-chloro-2-fluoro-benzyl]-2H-pyridazin-3-one]  8 nM
2. Cc1cc(Cc2ccc(Cl)c(Oc3cc(Cl)ccc3Br)c2)n[nH]c1=O [I-103, 6-[3-(2-Bromo-5-chloro-phenoxy)-4-chloro-benzyl]-4-methyl-2H-pyridazin-3-one]  9.35 nM
3. Cc1cc(Cc2ccc(Cl)c(Oc3cc(Cl)cc(C#N)c3)c2)n[nH]c1=O [I-108, 3-Chloro-5-[2-chloro-5-(5-methyl-6-oxo-1,6-dihydro-pyridazin-3-ylmethyl)-phenoxy]-benzonitrile]  11.1 nM
4. Cc1cc(Cc2ccc(Cl)c(Oc3cc(C#N)cc(C#N)c3)c2)n[nH]c1=O [I-135, 5-[2-Chloro-5-(5-methyl-6-oxo-1,6-dihydro-pyridazin-3-ylmethyl)-phenoxy]-isophthalonitrile]  12.5 nM
5. Cc1cc(Cc2ccc(Cl)c(Oc3cc(C#N)cc(C(F)F)c3)c2F)n[nH]c1=O [I-237, 3-[6-Chloro-2-fluoro-3-(5-methyl-6-oxo-1,6-dihydro-pyridazin-3-ylmethyl)-phenoxy]-5-difluoromethyl-benzonitrile]  12.8 nM
6. O=c1ccc(Cc2cc(Oc3cc(Br)cc(Br)c3)c3occc3c2)n[nH]1 [I-142, 6-[7-(3,5-Dibromo-phenoxy)-benzofuran-5-ylmethyl]-2H-pyridazin-3-one]  15 nM
7. CCc1ccc(Cc2ccc(=O)[nH]n2)c(F)c1Oc1cc(Cl)cc(C#N)c1 [I-224, 3-Chloro-5-[6-ethyl-2-fluoro-3-(6-oxo-1,6-dihydro-pyridazin-3-ylmethyl)-phenoxy]-benzonitrile]  18 nM
8. CCc1ccc(Cc2cc(C)c(=O)[nH]n2)cc1Oc1cc(Cl)cc(C#N)c1 [I-98, 3-Chloro-5-[2-ethyl-5-(5-methyl-6-oxo-1,6-dihydro-pyridazin-3-ylmethyl)-phenoxy]-benzonitrile]  19.4 nM
9. O=c1ccc(Cc2ccc(Cl)c(Oc3cc(Cl)ccc3Cl)c2)n[nH]1 [I-102, 6-[4-Chloro-3-(2,5-dichloro-phenoxy)-benzyl]-2H-pyridazin-3-one]  20.6 nM
10. CCc1ccc(Cc2cc(C)c(=O)[nH]n2)cc1Oc1cc(C)cc(C#N)c1 [I-109, 3-[2-Ethyl-5-(5-methyl-6-oxo-1,6-dihydro-yridazin-3-ylmethyl)-phenoxy]-5-methyl-benzonitrile]  21.6 nM
11. Cc1ccc(Cl)cc1Oc1cc(Cc2cc(C)c(=O)[nH]n2)ccc1Cl [I-123, 6-[4-Chloro-3-(5-chloro-2-methyl-phenoxy)-benzyl]-4-methyl-2H-pyridazin-3-one]  23.1 nM
12. CCc1ccc(Cc2ccc(=O)[nH]n2)cc1Oc1cc(C)cc(C#N)c1 [I-100, 3-[2-Ethyl-5-(6-oxo-1,6-dihydro-ridazin-3-ylmethyl)-phenoxy]-5-methyl-nzonitrile]  24.1 nM
13. O=c1ccc(Cc2ccc(Cl)c(Oc3cc(Cl)ccc3Br)c2)n[nH]1 [I-77, 6-[3-(2-Bromo-5-chloro-phenoxy)-4-chloro-benzyl]-2H-pyridazin-3-one]  24.2 nM
